Source: PubChem BioAssay (NCI)
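The compound was tested at five concentrations on cells cultured in 96-well plates, with a 48-hour exposure period. Here, GI50 denotes the concentration required for 50% inhibition of growth. TGI is the concentration that stops growth completely.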

Legend:
Test in all cases: DTP human tumour cell line panel, 48 h
MDA-MB-231 breast = system: MDA-MB-231 breast
MCF7 breast = system: MCF7 breast
MDA-MB-435 = system: MDA-MB-435
DU-145 prostate = system: DU-145 prostate
T-47D breast = system: T-47D breast
MDA-N = system: MDA-N
M19-MEL melanoma = system: M19-MEL melanoma

Structure (SMILES) | GI50 (MDA-MB-231 breast) | TGI (MDA-MB-231 breast) | GI50 (MCF7 breast) | TGI (MCF7 breast) | GI50 (MDA-MB-435) | TGI (MDA-MB-435) | GI50 (DU-145 prostate) | TGI (DU-145 prostate) | GI50 (T-47D breast) | TGI (T-47D breast) | TGI (MDA-N) | TGI (M19-MEL melanoma)
Oc1cc(Cl)ccc1Oc1ccc(Cl)cc1Cl | 2.16 µM | 4.95 µM | 3.14 µM | 10.6 µM | 2.86 µM | 9.24 µM | 4.61 µM | 16.3 µM | 3.03 µM | 9.94 µM |  | 
Fc1ccc(Nc2nccc(-c3c(-c4ccc(C(F)(F)F)cc4)nn4ncccc34)n2)cc1F | > 25 µM | > 25 µM | > 20.2 µM | > 25 µM | > 25 µM | > 25 µM | > 25 µM | > 25 µM | > 25 µM | > 25 µM |  | 
Fc1ccc(Nc2nc(NCCNc3ccnc4cc(Cl)ccc34)nc(N3CCOCC3)n2)cc1 | 3.05 µM | 11.1 µM | 3.43 µM | 14.7 µM | 2.22 µM | 5.38 µM | 8.68 µM | 21.1 µM | 10.9 µM | 27.4 µM |  | 
CCN1C(=O)N(CC)C2C1NN=c1s/c(=C3\C(=O)N(C)c4ccccc43)c(=O)n12 (stereo unspecified) | 1.99 µM | 34.6 µM | 0.373 µM | 31.2 µM | 0.221 µM | 0.663 µM | 2.16 µM | > 100 µM | 0.632 µM | > 100 µM |  | 
NCc1ccc(-n2c(-c3nonc3N)nc3cnccc32)cc1 | > 25 µM | > 25 µM | 5.19 µM | > 25 µM | 20.1 µM | > 25 µM | 11.4 µM | > 25 µM | 8.48 µM | > 25 µM |  | 
C=C(C)[C@@H]1CC[C@@]2(C)[C@H]1[C@H]1CCC3[C@@]4(C)CC[C@H](O)C(C)(C)[C@@H]4CC[C@@]3(C)[C@]1(C)C[C@@H]2O (stereo partly specified) |  | > 100 µM |  | > 100 µM |  | 84.9 µM |  | > 100 µM |  | > 100 µM | > 100 µM | 
CC(C)(Br)C(=O)/C=C/c1ccccc1 |  | > 69.8 µM |  | 15.3 µM |  | 22.2 µM |  | 22.9 µM |  | > 52 µM | 21.4 µM | 
CCOC(=O)N1CCN(S(=O)(=O)c2oc(-c3ccc(Cl)cc3)nc2C#N)CC1 | 1.94 µM | 4.24 µM | 1.75 µM | 4.21 µM | 2.32 µM | 5.24 µM | 2.48 µM | 6.31 µM | 2.29 µM | 5.94 µM |  | 
C=CCc1ccc(O)c(-c2cc(C3Oc4c(-c5cc(CC=C)ccc5O)cc(O)cc4[C@@H]3CO)ccc2O)c1 (stereo partly specified) |  |  |  |  |  |  |  |  |  |  |  | > 100 µM
Cc1ncc([N+](=O)[O-])n1CCNC(=O)CCCn1cnc([N+](=O)[O-])n1 |  | > 100 µM |  | > 100 µM |  | > 100 µM |  | > 100 µM |  | > 100 µM | > 100 µM | 
CC1=CC(=O)C(C(C)=Nc2ccccc2Cl)C(=O)O1 (stereo unspecified) | > 100 µM | > 100 µM | > 100 µM | > 100 µM | > 100 µM | > 100 µM | > 100 µM | > 100 µM | > 100 µM | > 100 µM |  | 
COc1ccc(/C=C2\CCCC3=C2NC(C)=NC3c2ccc(OC)c(OC)c2)cc1OC (stereo unspecified) | 12.9 µM | 75.3 µM | 2.44 µM | > 100 µM | 1.05 µM | > 100 µM | 16.5 µM | > 100 µM | 14.7 µM | > 100 µM |  | 
COc1cnc2c(c1)C(=O)c1c-2n(CCCN2CCCC2)c(=O)c2cc(Cl)ccc12 | 6.15 µM | 15.2 µM |  |  | 5.06 µM | 10.9 µM |  |  | 1.21 µM | 18.9 µM |  | 
Nc1nc(OCc2ccccc2)nc2[nH]ncc12 | 11.4 µM | 25.6 µM | 16.1 µM | 33.1 µM | 16.2 µM | 30.5 µM | 18.4 µM | > 100 µM | 4.12 µM | 9.69 µM |  | 
COC(=O)[C@@H]1CCCN1C(=O)[C@@H]1CCCN1C(=O)[C@@H](Cc1c[nH]c2ccccc12)NC(=S)Nc1cc(C(F)(F)F)cc(C(F)(F)F)c1 | 3.01 µM | 10.8 µM | 2.61 µM | > 100 µM | 2.44 µM | 6.8 µM | 14.6 µM | > 100 µM | 2.91 µM | 9.5 µM |  | 
CS(=O)(=O)Nc1cc(-c2ccc3ncnc(Nc4ccc5c(cnn5Cc5ccc(F)cc5)c4)c3c2)cnc1Cl |  |  | 0.404 µM | 10.2 µM | 1.1 µM | 3.67 µM | 2.66 µM | 19.1 µM | 0.256 µM | 2.23 µM |  | 
COc1ccc2c(c1)nc(N)c1c3cccnc3cn21 | 0.556 µM | 22.4 µM | 0.302 µM | 17.5 µM |  |  | 0.0561 µM | > 33.6 µM | 6.75 µM | 33.4 µM |  | 
O=[N+]([O-])c1ccc(CS(=O)Cc2ccccc2)cc1 (stereo unspecified) |  | > 100 µM |  | > 100 µM |  | > 100 µM |  | > 100 µM |  | > 100 µM | > 100 µM | 
C=C(C)CCC(C)N1CCC(N2CCC(C(=O)NCCc3ccccc3)CC2)CC1 (stereo unspecified) | 29.9 µM | > 100 µM | 19.6 µM | > 100 µM | 14 µM | 28.5 µM | > 100 µM | > 100 µM | 13.4 µM | > 100 µM |  | 
C=C[C@]1(C)C=C2C(=O)[C@@]3(O)OC[C@@]4(CCCC(C)(C)C43O)C2(O)C(O)C1 (stereo partly specified) | 13.3 µM | 27.3 µM | 3.39 µM | 15.3 µM | 3.95 µM | 14.9 µM | 3.03 µM | 11.6 µM | 0.759 µM | 2.43 µM |  | 
C/C1=C\CC[C@@](C)(O)[C@@H]2CC3[C@@H](OC(=O)C34CC4)[C@@H](O2)[C@H](C)CCC1 (stereo partly specified) | 19.6 µM | 43.5 µM | 0.238 µM | 25.3 µM | 20.3 µM | 44.2 µM |  |  | 47.2 µM | > 100 µM |  | 
Clc1ccc2nc(Oc3ccccc3)cnc2c1 | > 100 µM | > 100 µM | > 100 µM | > 100 µM | > 100 µM | > 100 µM | > 100 µM | > 100 µM | > 100 µM | > 100 µM |  | 
O=C(Nc1cc(Cl)c(Cl)cc1Cl)C(=O)C(C(=O)c1ccc(Cl)c(Cl)c1)C1OC(=O)c2ccccc21 (stereo unspecified) |  |  |  |  |  |  |  |  |  |  |  | 37.9 µM
